Like-named read-outs stand apart in the source and are kept apart here.
Key:
IRAK4 [1] = target: T1, IRAK4 (Homo sapiens (Human), UniProt Q9NWZ3); test: IRAK4 Biochemical HTRF Kinase Assay; conditions: read-out: IRAK4 HTRF biochemical: IC50
Summary of the method: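 IC50 values derive from non-linear regression of sixteen concentrations in duplicate. Kinase reaction ran 90 min at ambient temperature after adding 5 μM STK-S1 substrate, 10 mM ATP and 10 mM MgCl2 (reaction-solution levels, pre-dilution to 10 μl); phospho-peptide detected by HTRF after 60 min.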
Target sequence in this assay (Q9NWZ3 whole entry, species assumed): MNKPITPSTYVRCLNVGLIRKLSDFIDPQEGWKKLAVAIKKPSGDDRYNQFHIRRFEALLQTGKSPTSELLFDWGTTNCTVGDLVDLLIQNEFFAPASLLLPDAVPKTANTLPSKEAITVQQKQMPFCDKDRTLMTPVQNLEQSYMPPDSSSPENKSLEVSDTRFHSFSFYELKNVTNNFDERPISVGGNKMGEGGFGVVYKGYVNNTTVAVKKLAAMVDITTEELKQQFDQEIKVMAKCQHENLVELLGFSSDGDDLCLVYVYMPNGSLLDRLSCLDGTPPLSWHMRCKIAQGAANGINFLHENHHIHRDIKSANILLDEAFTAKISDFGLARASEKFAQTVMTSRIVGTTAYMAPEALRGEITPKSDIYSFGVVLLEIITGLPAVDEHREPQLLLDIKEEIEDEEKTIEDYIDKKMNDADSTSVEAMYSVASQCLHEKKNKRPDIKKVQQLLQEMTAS

IRAK4 [2] = target: T1, IRAK4; test: IRAK4 Degradation HiBiT Assay; conditions: HiBiT-tagged Jurkat cells, 4 hrs; for DC50: read-out: Cellular IRAK4 HiBiT: DC50; for Dmax: Jurkat
Target sequence in this assay (Q9NWZ3 whole entry): as the sequence (Q9NWZ3 whole entry, species assumed) above

[3] = read-out: Cellular IRAK4 HiBiT: Dmax, Table 4
[4] = read-out: Cellular IRAK4 HiBiT: Dmax, Table 5, multiple runs

| SMILES | IC50 (IRAK4 [1]; Table 5, multiple runs) [nM] | DC50 (IRAK4 [2]; Table 5, multiple runs) [nM] | IC50 (IRAK4 [1]; Table 4) [nM] | Dmax (IRAK4 [2]; [3]) [%] | Dmax (IRAK4 [2]; [4]) [%] | DC50 (IRAK4 [2]; Table 4) [nM] | Cellular IRAK4 HiBiT: Dmax (IRAK4 [2]; Table 5, multiple runs) [%] |
| --- | --- | --- | --- | --- | --- | --- | --- |
| CNc1cc(-c2ccc3cc(C#N)cnn23)ncc1-c1nnc(C23CCC(NC(=O)[C@H]4CC[C@H](C(=O)N[C@H](C(=O)N5C[C@H](O)C[C@H]5C(=O)NCc5ccc(-c6scnc6C)cc5)C(C)(C)C)CC4)(CC2)CC3)s1 [Example 130, (1S,4r)-N1-(4-(5-(6-(3-cyanopyrrolo[1,2-b]pyridazin-7-yl)-4-(methylamino)pyridin-3-yl)-1,3,4-thiadiazol-2-yl)bicyclo[2.2.2]octan-1-yl)-N4—((S)-1-((2S,4R)-4-hydroxy-2-((4-(4-methylthiazol-5-yl)benzyl)carbamoyl)pyrrolidin-1-yl)-3,3-dimethyl-1-oxobutan-2-yl)cyclohexane-1,4-dicarboxamide] | 1.8 | 126 |  |  |  |  | 110 |
| CC(C)Nc1cc(-c2ccc3cc(C#N)cnn23)ncc1-c1nnc(N2CCN(C(=O)CCCCCCCNc3cccc4c3C(=O)N(C3CCC(=O)NC3=O)C4=O)CC2)s1 (centres unmarked) [Example 8, 7-(5-(5-(4-(8-((2-(2,6-dioxopiperidin-3-yl)-1,3-dioxoisoindolin-4-yl)amino)octanoyl)piperazin-1-yl)-1,3,4-thiadiazol-2-yl)-4-(isopropylamino)pyridin-2-yl)pyrrolo[1,2-b]pyridazine-3-carbonitrile] | 0.8 | 53.8 | 0.8 | 100 | 100 | 53.8 |  |
| Cc1ncsc1-c1ccc(CNC(=O)[C@@H]2C[C@@H](O)CN2C(=O)[C@@H](NC(=O)C2(F)CC2)C(C)(C)C)c(OCCCCCCCCCC(=O)N2CCN(c3nnc(-c4cnc(-c5ccc6cc(C#N)cnn56)cc4NC(C)C)s3)CC2)c1 [Example 44, (2S,4R)—N-(2-((10-(4-(5-(6-(3-cyanopyrrolo[1,2-b]pyridazin-7-yl)-4-(isopropylamino)pyridin-3-yl)-1,3,4-thiadiazol-2-yl)piperazin-1-yl)-10-oxodecyl)oxy)-4-(4-methylthiazol-5-yl)benzyl)-1-((S)-2-(1-fluorocyclopropane-1-carboxamido)-3,3-dimethylbutanoyl)-4-hydroxypyrrolidine-2-carboxamide] | 702 | > 9980 | 702 | 33 |  | > 10000 |  |
| CNc1cc(-c2ccc3cc(C#N)cnn23)ncc1-c1nnc([C@H]2CC[C@H](NC(=O)CCOCCC(=O)N[C@H](C(=O)N3C[C@H](O)C[C@H]3C(=O)N[C@@H](C)c3ccc(-c4scnc4C)cc3)C(C)(C)C)CC2)s1 [Example 61, (2S,4R)-1-((S)-2-(3-(3-(((1r,4S)-4-(5-(6-(3-cyanopyrrolo[1,2-b]pyridazin-7-yl)-4-(methylamino)pyridin-3-yl)-1,3,4-thiadiazol-2-yl)cyclohexyl)amino)-3-oxopropoxy)propanamido)-3,3-dimethylbutanoyl)-4-hydroxy-N—((S)-1-(4-(4-methylthiazol-5-yl)phenyl)ethyl)pyrrolidine-2-carboxamide] | 4 | 399 | 3.98 | 117 | 121 | 591 |  |
| CNc1cc(-c2ccc3cc(C#N)cnn23)ncc1-c1nnc(N2CC3CCC(C2)N3C2CCN(Cc3ccc4c(c3)C(=O)N(C3CCC(=O)NC3=O)C4=O)CC2)s1 (centres unmarked) [Example 165, 7-(5-(5-(8-(1-((2-(2,6-dioxopiperidin-3-yl)-1,3-dioxoisoindolin-5-yl)methyl)piperidin-4-yl)-3,8-diazabicyclo[3.2.1]octan-3-yl)-1,3,4-thiadiazol-2-yl)-4-(methylamino)pyridin-2-yl)pyrrolo[1,2-b]pyridazine-3-carbonitrile] | 0.4 | 21 |  |  | 100 |  |  |
| CNc1cc(-c2ccc3cc(C#N)cnn23)ncc1-c1nnc([C@H]2CC[C@H](NC(=O)CCCCCOc3cc(-c4scnc4C)ccc3CNC(=O)[C@@H]3C[C@@H](O)CN3C(=O)[C@@H](NC(=O)C3(F)CC3)C(C)(C)C)CC2)s1 [Example 60, (2S,4R)—N-(2-((6-(((1r,4r)-4-(5-(6-(3-cyanopyrrolo[1,2-b]pyridazin-7-yl)-4-(methylamino)pyridin-3-yl)-1,3,4-thiadiazol-2-yl)cyclohexyl)amino)-6-oxohexyl)oxy)-4-(4-methylthiazol-5-yl)benzyl)-1-((S)-2-(1-fluorocyclopropane-1-carboxamido)-3,3-dimethylbutanoyl)-4-hydroxypyrrolidine-2-carboxamide] | 3.5 | 111 | 3.55 | 105 | 112 | 159 |  |

Further lines, with some results ahead:

| IC50 (IRAK4 [1]; Table 5, multiple runs) [nM] | DC50 (IRAK4 [2]; Table 5, multiple runs) [nM] | IC50 (IRAK4 [1]; Table 4) [nM] | Dmax (IRAK4 [2]; [3]) [%] | Dmax (IRAK4 [2]; [4]) [%] | DC50 (IRAK4 [2]; Table 4) [nM] | SMILES | Cellular IRAK4 HiBiT: Dmax (IRAK4 [2]; Table 5, multiple runs) [%] |
| --- | --- | --- | --- | --- | --- | --- | --- |
| 0.6 | 7.6 | 0.7 | 80 | 85 | 8.1 | CNc1cc(-c2ccc3cc(C#N)cnn23)ncc1-c1nnc([C@H]2CC[C@H](NC(=O)CCOCCNc3ccc4c(c3)C(=O)N(C3CCC(=O)NC3=O)C4=O)CC2)s1 (some centres unmarked) [Example 63, N-((1r,4r)-4-(5-(6-(3-cyanopyrrolo[1,2-b]pyridazin-7-yl)-4-(methylamino)pyridin-3-yl)-1,3,4-thiadiazol-2-yl)cyclohexyl)-3-(2-((2-(2,6-dioxopiperidin-3-yl)-1,3-dioxoisoindolin-5-yl)amino)ethoxy)propanamide] |  |
| 0.5 | 16 |  |  | 108 |  | CNc1cc(-c2ccc3cc(C#N)cnn23)ncc1-c1nnc([C@H]2CC[C@H](N(C)C(=O)CCN3CCN(c4ccc5c(c4)C(=O)N(C4CCC(=O)NC4=O)C5=O)CC3)CC2)s1 (some centres unmarked) [Example 188, N-((1r,4r)-4-(5-(6-(3-cyanopyrrolo[1,2-b]pyridazin-7-yl)-4-(methylamino)pyridin-3-yl)-1,3,4-thiadiazol-2-yl)cyclohexyl)-3-(4-(2-(2,6-dioxopiperidin-3-yl)-1,3-dioxoisoindolin-5-yl)piperazin-1-yl)-N-methylpropanamide] |  |
| 0.6 | 321 |  |  | 113 |  | CNc1cc(-c2ccc3cc(C#N)cnn23)ncc1-c1nnc(N2CCN(C(=O)CN3CCN(c4ccc5c(c4)C(=O)N(C4CCC(=O)NC4=O)C5=O)CC3)CC2)s1 (centres unmarked) [Example 94, 7-(5-(5-(4-(2-(4-(2-(2,6-dioxopiperidin-3-yl)-1,3-dioxoisoindolin-5-yl)piperazin-1-yl)acetyl)piperazin-1-yl)-1,3,4-thiadiazol-2-yl)-4-(methylamino)pyridin-2-yl)pyrrolo[1,2-b]pyridazine-3-carbonitrile] |  |
| 2.4 | 332 |  |  | 74 |  | Cc1ncsc1-c1ccc([C@H](C)NC(=O)[C@@H]2C[C@@H](O)CN2C(=O)[C@@H](NC(=O)CCOCCOCCOCCC(=O)N2CCN(c3nnc(-c4cnc(-c5ccc6cc(C#N)cnn56)cc4NC(C)C)s3)CC2)C(C)(C)C)cc1 [Example 78, (2S,4R)-1-((S)-2-(tert-butyl)-16-(4-(5-(6-(3-cyanopyrrolo[1,2-b]pyridazin-7-yl)-4-(isopropylamino)pyridin-3-yl)-1,3,4-thiadiazol-2-yl)piperazin-1-yl)-4,16-dioxo-7,10,13-trioxa-3-azahexadecanoyl)-4-hydroxy-N—((S)-1-(4-(4-methylthiazol-5-yl)phenyl)ethyl)pyrrolidine-2-carboxamide] |  |
| 1.4 | 45.7 |  |  | 70 |  | CNc1cc(-c2ccc3cc(C#N)cnn23)ncc1-c1nnc(C23CCC(NC(=O)CCCCCNc4ccc5c(c4)C(=O)N(C4CCC(=O)NC4=O)C5=O)(CC2)CC3)s1 (centres unmarked) [Example 108, N-(4-(5-(6-(3-cyanopyrrolo[1,2-b]pyridazin-7-yl)-4-(methylamino)pyridin-3-yl)-1,3,4-thiadiazol-2-yl)bicyclo[2.2.2]octan-1-yl)-6-((2-(2,6-dioxopiperidin-3-yl)-1,3-dioxoisoindolin-5-yl)amino)hexanamide] |  |
| 1.4 | 21.6 |  |  | 64 |  | CNc1cc(-c2ccc3cc(C#N)cnn23)ncc1-c1nnc(C23CCC(NC(=O)[C@H]4C[C@@H](OCCNc5cccc6c5C(=O)N(C5CCC(=O)NC5=O)C6=O)C4)(CC2)CC3)s1 (some centres unmarked) [Example 109, (1s,3s)-N-(4-(5-(6-(3-cyanopyrrolo[1,2-b]pyridazin-7-yl)-4-(methylamino)pyridin-3-yl)-1,3,4-thiadiazol-2-yl)bicyclo[2.2.2]octan-1-yl)-3-(2-((2-(2,6-dioxopiperidin-3-yl)-1,3-dioxoisoindolin-4-yl)amino)ethoxy)cyclobutane-1-carboxamide] |  |
| 2.3 | 88.9 |  |  | 111 |  | CNc1cc(-c2ccc3cc(C#N)cnn23)ncc1-c1nnc(C23CCC(NC(=O)C[C@H](NC(=O)[C@@H]4C[C@@H](O)CN4C(=O)[C@@H](NC(=O)C4(F)CC4)C(C)(C)C)c4ccc(-c5scnc5C)cc4)(CC2)CC3)s1 [Example 140, (2S,4R)—N—((S)-3-((4-(5-(6-(3-cyanopyrrolo[1,2-b]pyridazin-7-yl)-4-(methylamino)pyridin-3-yl)-1,3,4-thiadiazol-2-yl)bicyclo[2.2.2]octan-1-yl)amino)-1-(4-(4-methylthiazol-5-yl)phenyl)-3-oxopropyl)-1-((S)-2-(1-fluorocyclopropane-1-carboxamido)-3,3-dimethylbutanoyl)-4-hydroxypyrrolidine-2-carboxamide] |  |

— patent publication US12528814B2, “Bifunctional degraders of interleukin-1 receptor-associated kinases and therapeutic use thereof” (NURIX THERAPEUTICS, INC., priority 2020, dated 2026)
